Patent EP2357172B1, “Process for the preparation of pimozide” (Institut Univ. de Ciència i Tecnologia, S.A., priority 2006, dated 2008)

How the values were obtained:
[1] = cited from earlier work
rats [2] = test: Oral lethal dose (LD50) in rats, from safety data sheets; assay type: in vivo; conditions: glycerol formal compared with MIBK
Excerpt: The data for MIBK were obtained from the International Chemical Safety Card published by "Instituto Nacional de Seguridad e Higiene en el Trabajo" (National Institute for Occupational Safety and Hygiene). The data for glycerol formal were obtained from the most recent manufacturer's standard safety data sheet.

rats [3] = conditions: cited from earlier work

Compound	Solubility in H2O (g/L) [1]	lethal dose in rats (ingestion) relative to MIBK (rats [2])	LD50(oral-rats, g/kg) (rats [3]) [g/kg]
GLYCEROL FORMAL	Miscible in all proportions	five times higher	10
CC(=O)CC(C)C [MIBK, methylisobutylketone]	–	–	2.1
